Data: patent US11008325B2, “Inhibitors of cancer invasion, attachment, and/or metastasis” (VIRGINIA COMMONWEALTH UNIVERSITY, priority 2016, dated 2021)
Where two headings read alike, the source gives them in different places.

What was measured:
MMP-2 and MMP-9 = test: western blotting and gelatin zymography of conditioned media; format: cell-based; conditions: 50 μM, 24 h
U87 cells = test: MTT assay after radiation; format: cell-based, human; conditions: radiation plus PDZ1i versus radiation plus DMSO
Experimental: FIGS. 8A-8D. PDZ1i produces similar effects to mda-9/syntenin knockdown post-radiation. FIG. 8A. ImPHFA and U87 cells were treated with 50 μM PDZ1i 2 h prior to radiation and analyzed for colony formation after 14 d. FIG. 8B. U87 cells were treated with 50 μM PDZ1i 2 h prior to radiation and analyzed via MTT assay after 24 h. FIG. 8C. U87 cells were pretreated with 50 μM PDZ1i 2 h prior to radiation and subsequently seeded in a trans-well Matrigel invasion assay and stained after 24 h. Invasion was quantified from 5 random fields in FIG. 8D. Error bars=±s.d. *p<0.05, **p<0.01.
Clonogenic radiosurvival experiments were carried out as described previously (4,7). Briefly, cells were diluted, seeded on 6-cm dishes, and after the cells attached, treated with DMSO or PDZ1i (12.5, 25, or 50 μM) in the medium for 2 h before irradiation. Cells were incubated overnight, and the medium changed to nondrug containing medium 16 h postirradiation. Cells were incubated further for 14 days, stained with 2% Giemsa solution, and colonies consisting of 50 or more were counted. Cell viability was assessed through MTT analysis as described previously (8).

[1] = molecular target: T1, MDA-9/Syntenin and c-Src interactions (Homo sapiens, UniProt O00560); test: co-immunoprecipitation in C8161.9 cells; format: cell-based
T1 construct: endogenous in cells; host or cells: C8161.9 melanoma cells
Experimental: FIG. 54. Effects of PDZ1in (113B7) on MDA-9/Syntenin and c-Src interactions. C8161.9 cells were pre-treated with either DMSO or a dose of 113B7 (as indicated) and re-plated onto fibronectin-coated plates. After 30 minutes, cell lysates were immunoprecipitated and immuneblotted with the indicated antibodies. IgG, immunoglobulin.
Another fundamental issue that we will address as part of the proposed hit-to-lead optimization process is the specificity of the binding of 113B7 to the PDZ1 domain of MDA-9/Syntenin. […] To determine if the PDZin molecule alters physical binding we performed co-immunoprecipitation analysis with c-Src and MDA-9/Syntenin in the presence or absence of 113B7 (FIG. 54). In the case of 113B7, which binds to PDZ1 and the interdomain of MDA-9/Syntenin, no inhibition of c-Src binding was evident.

[2] = pharmacokinetics after IV and IP administration; format: in vivo, Balb/c mice; conditions: for concentration at 0.25 h: 0.250 h
EGFR = EGFR activation in PC cells; format: cell-based
Experimental: Considering the key role of MDA-9/IGF-1R interactions in STAT-3 activation, which has a decisive impact on PC progression, small molecule inhibitors that bind to MDA-9 were tested for their ability to specifically interrupt MDA-9/IGF-1R interactions thereby affecting STAT3 activation and PC invasion. […] In PC cells, PDZ1i-mediated downregulation of c-Src activation is partially IGF-1R dependent. Another tyrosine kinase, EGFR, which is also an interacting partner of MDA-9, has been reported to activate c-Src in PC.

IGF-1R and STAT3 = test: western blot after hIGFBP-2 stimulation; format: cell-based; conditions: dose- and time-dependent
Experimental: FIGS. 17A-17H. Effect of PDZ1i on invasion, MDA-9/IGF-R1 interaction and IGF-R1, STAT3 and SRC phosphorylation. FIG. 17A) Different cancer cells (25,000 cells/well) from various anatomic origins were pre-treated with either DMSO (vehicle) or PDZ1i (dose as indicated) and invasion ability was assayed using modified Boyden Chamber according to the manufacturer's instructions. Photomicrographs were taken at 10× magnification and quantification of the results of three independent experiments is provided in the graphs. The data presents mean±S.D. B) The designated cells were treated with DMSO or PDZ1i and invasion properties were determined using a modified Boyden Chamber assay (BD bioscience). RWPE-1 mda-9: mda-9 transiently overexpressing cell line. […] FIG. 17E) Cells were growth starved for 24 h and treated with either DMSO or PDZ1i (dose indicated in μM) for 6 h. Cells were treated with human recombinant IGFBP-2 (hIGFBP-2, 10 ng/ml) for 2 h, lysates were prepared and western blot analysis was conducted with specific antibodies. FIG. 17F) Cells were serum-starved for 24 h and treated with either DMSO or PDZ1i (20 μM) for 6 h. […] Cells were treated with human recombinant […] (hIGFBP-2, 1 ng/ml) for 2 h, cell lysates were prepared and analyzed by western blotting. […]

[3] = Balb/c, mouse, plasma, IP 30 mg/kg
[4] = Balb/c, mouse, plasma, IP 30 mg/kg, read-out: Plasma Concentration, Mean IP
[5] = Balb/c, mouse, plasma, IV 3 mg/kg, read-out: Plasma Concentration, Mean IV

T1 sequence (O00560 2-298 limits assumed): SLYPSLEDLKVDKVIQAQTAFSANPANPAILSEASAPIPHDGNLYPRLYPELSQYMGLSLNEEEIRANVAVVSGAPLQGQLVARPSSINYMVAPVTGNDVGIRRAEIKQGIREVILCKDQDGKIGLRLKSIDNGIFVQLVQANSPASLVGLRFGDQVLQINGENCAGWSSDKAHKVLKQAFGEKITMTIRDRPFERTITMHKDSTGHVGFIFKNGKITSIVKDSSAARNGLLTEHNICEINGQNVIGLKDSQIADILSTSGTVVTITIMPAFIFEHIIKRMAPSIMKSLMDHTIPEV
T1 sequence (P12931 2-536 partner limits assumed): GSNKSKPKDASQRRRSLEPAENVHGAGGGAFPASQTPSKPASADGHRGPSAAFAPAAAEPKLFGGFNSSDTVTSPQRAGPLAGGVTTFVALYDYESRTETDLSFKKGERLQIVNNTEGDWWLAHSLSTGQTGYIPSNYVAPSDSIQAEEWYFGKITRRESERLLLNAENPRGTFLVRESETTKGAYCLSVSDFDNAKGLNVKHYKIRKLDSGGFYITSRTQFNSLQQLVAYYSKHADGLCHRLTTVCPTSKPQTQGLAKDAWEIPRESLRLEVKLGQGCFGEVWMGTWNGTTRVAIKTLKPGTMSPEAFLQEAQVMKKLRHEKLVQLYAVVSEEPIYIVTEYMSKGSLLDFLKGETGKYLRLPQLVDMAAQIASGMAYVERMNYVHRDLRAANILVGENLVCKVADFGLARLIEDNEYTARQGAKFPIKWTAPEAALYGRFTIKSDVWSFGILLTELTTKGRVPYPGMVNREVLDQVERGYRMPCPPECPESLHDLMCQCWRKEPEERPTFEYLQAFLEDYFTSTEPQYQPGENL

SMILES: Cc1cc(NC(=O)c2nc3[nH]c4c(c(=O)n3n2)CCC4)c(C)cc1NC(=O)CCc1nnc(-c2ccccc2)o1 [113B7, N-(2,5-dimethyl-4-(3-(5-phenyl-1,3,4-oxadiazol-2-yl)propanamido)phenyl)-8-oxo-5,6,7,8-tetrahydro-4H-cyclopenta[d][1,2,4]triazolo[1,5-a]pyrimidine-2-carboxamide]
- MMP-2 and MMP-9 protein and activity level (MMP-2 and MMP-9): downregulates
- proliferation following radiation (U87 cells): significantly decreased
- c-Src binding to MDA-9/Syntenin [1]: no inhibition
- signs of toxicity during the PK experiment ([2]; 3.0 mg/Kg IV and 30.0 mg/Kg IP, mice): lack of adverse signs of toxicity
- half-life ([2]; Balb/c, mouse, intravenous, intraperitoneal, in each route: 3.0 mg/Kg IV and 30.0 mg/Kg IP, mice, serum, read-out: T1/2 (very slow clearance)): > 9 h
- bioavailability ([2]; Balb/c, mouse, plasma, intraperitoneal, 30 mg/kg, IP 30 mg/kg versus IV 3 mg/kg, read-out: Bioavailability (IP/IV)): 81.2%
- AUC ([2]; Balb/c, mouse, plasma, ip, 30 mg/kg, IP 30 mg/kg, read-out: AUC0-int (first line)): 975 µg·h/mL
- AUC ([2]; Balb/c, mouse, plasma, ip, 30 mg/kg, IP 30 mg/kg, read-out: AUC0-int (second line)): 1180 µg·h/mL
- AUC ([2]; Balb/c, mouse, plasma, iv, 3 mg/kg, IV 3 mg/kg, read-out: AUC0-int (first line)): 120 µg·h/mL
- AUC ([2]; Balb/c, mouse, plasma, iv, 3 mg/kg, IV 3 mg/kg, read-out: AUC0-int (second line)): 124 µg·h/mL
- Cmax [2, 3]: 98200 ng/mL
- Tmax [2, 3]: 0.25 h
- concentration at 0.25 h [2, 4]: 98200 ng/mL
- concentration at 1 h [2, 4]: 69200 ng/mL
- concentration at 2 h [2, 4]: 59000 ng/mL
- concentration at 6 h [2, 4]: 54600 ng/mL
- concentration at 12 h [2, 4]: 42800 ng/mL
- concentration at 24 h [2, 4]: 15100 ng/mL
- half-life ([2]; Balb/c, mouse, plasma, IP 30 mg/kg, read-out: T1/2 (converted)): 9.42 h
- C0 ([2]; Balb/c, mouse, plasma, IV 3 mg/kg): 35000 ng/mL
- concentration at 0.25 h [2, 5]: 29500 ng/mL
- concentration at 1 h [2, 5]: 17700 ng/mL
- concentration at 2 h [2, 5]: 11600 ng/mL
- concentration at 6 h [2, 5]: 6110 ng/mL
- concentration at 12 h [2, 5]: 3360 ng/mL
- concentration at 24 h [2, 5]: 541 ng/mL
- half-life ([2]; Balb/c, mouse, plasma, IV 3 mg/kg, read-out: T1/2 (converted)): 5.06 h
- half-life ([2]; Balb/c, mouse, serum, intravenous and intraperitoneal, in vivo, read-out: half-life (t1/2) (converted)): 9 h
- bioavailability ([2]; Balb/c, mouse, serum, ip, 30 mg/kg, administered I.P. 30.0 mg/Kg, mice, read-out: bioavailability): 80%
- bioavailability ([2]; administered I.P. 30.0 mg/Kg, mice, 30 mg/kg): ~100%
- EGFR activation (EGFR): did not have any effect
- IGF-1R and STAT3 activity (IGF-1R and STAT3): down regulates
